Laboratory results from patent US6406866B1 (OREGON HEALTH SCIENCES UNIVERSITY, dated 2002).

Experiments:
[1] = target: T1, novel mammalian opioid receptor (MSOR, LC132) (Rattus norvegicus, UniProt P35370); assay type: binding
T1 construct: The entire coding region of the receptor cDNA insert was subcloned in to the RcRSV vector; expressed in transfected cells

[2] = system: untransfected COS-7 and Ltk- cells; assay: Radioligand binding to membranes of untransfected cells (control); conditions: untransfected COS-7 and Ltk- cell membranes
[3] = Open-field observation of behavioral signs after peptide administration; assay type: in vivo, mice
Experimental: (§1) For these experiments, the peptide was administered intracerebroventricularly (i.c.v.) and intrathecally (i.t.) in mice. Immediately after peptide administration, mice were placed in transparent boxes in groups of three and behavioral signs recorded. Emphasis was placed on signs indicative of depressant, stimulant and autonomic effects of the peptide (as described by Irwin, 1968, Psychopharmacologia 13: 222). […] The effects of the peptide on horizontal (FIG. 10A) and vertical (FIG. 10B) locomotor activity was measured using Digiscan Animal Activity Monitors (Omnitech, Columbus Ohio). The values for horizontal and vertical locomotor activity represent the total number of interruptions of the horizontal and vertical sensors during the first 10 min following administration of the peptide. Data are shown as the mean ± standard error of the mean.

[4] = Horizontal and vertical locomotor activity (Digiscan Animal Activity Monitors); assay type: in vivo, mice; conditions: i.c.v., 0.1-10 nmol/2 μL/mouse, first 10 min
Experimental: as §1

[5] = Hot plate test of nociception; toe- and tail-pinch reflexes; assay type: in vivo, mice
Experimental: Groups of 6-8 male MORO mice (weight=22 g) were administered phosphate buffered saline (open circles) or varying doses of the orphanin peptide. Reaction time represents the time taken for the mice to lick their paws. The hot plate was set to 58° C., and a cutoff time of 60 sec was used. […] (designated by an asterisk). This observation was most likely related to a decrease in locomotor activity and muscle tone.

[6] = target: T2, novel mammalian MSOR opioid receptor (methadone-specific opioid receptor) (rat, UniProt P35370 1-367); assay: assay not described
T2 construct: cAMP assays used whole cells; also called LC132; novel mammalian opioid receptor
T2 chain: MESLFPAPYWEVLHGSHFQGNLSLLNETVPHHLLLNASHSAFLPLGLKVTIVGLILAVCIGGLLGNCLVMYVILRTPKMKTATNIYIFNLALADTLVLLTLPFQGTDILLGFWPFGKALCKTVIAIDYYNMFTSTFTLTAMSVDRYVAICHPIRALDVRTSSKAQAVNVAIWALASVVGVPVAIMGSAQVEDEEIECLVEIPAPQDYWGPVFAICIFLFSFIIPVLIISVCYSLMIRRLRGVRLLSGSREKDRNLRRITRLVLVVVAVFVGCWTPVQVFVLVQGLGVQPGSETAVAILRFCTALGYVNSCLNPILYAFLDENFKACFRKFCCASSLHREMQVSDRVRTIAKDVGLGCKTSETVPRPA

[7] = target: T2, novel mammalian MSOR opioid receptor …; assay: saturation radioligand binding (scintillation proximity assay) to membranes of MSOR-transfected CHO cells (LC-7), Scatchard analysis
[8] = target: T2, novel mammalian MSOR opioid receptor …; assay: cell-based or functional assay

T1 sequence (P35370 whole entry): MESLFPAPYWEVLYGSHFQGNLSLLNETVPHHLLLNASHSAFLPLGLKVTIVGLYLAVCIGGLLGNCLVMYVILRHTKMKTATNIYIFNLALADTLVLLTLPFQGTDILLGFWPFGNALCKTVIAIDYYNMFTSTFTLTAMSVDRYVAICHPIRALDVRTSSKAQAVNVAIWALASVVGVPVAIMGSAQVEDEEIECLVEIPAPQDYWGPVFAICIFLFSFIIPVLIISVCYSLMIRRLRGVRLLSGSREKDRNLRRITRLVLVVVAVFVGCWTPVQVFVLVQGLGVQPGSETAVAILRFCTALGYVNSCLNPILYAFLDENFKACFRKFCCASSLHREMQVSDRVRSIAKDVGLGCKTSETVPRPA

C[C@@H](NC(=O)[C@@H](N)Cc1ccc(O)cc1)C(=O)NCC(=O)N(C)[C@@H](Cc1ccccc1)C(=O)NCCO [DAMGO, Tyr-DAla-Gly-Met-Phe-Gly-ol]
specific binding of the radioactively-labeled opioid agonist or antagonist [1]: no specific binding

CCC12CCN(CC3(O)CC3)C(Cc3ccc(O)cc31)C2(C)C (centres unmarked) [bremacozine]
specific binding of the radioactively-labeled opioid agonist or antagonist [1]: no specific binding

CN1CC[C@]23c4c5ccc(O)c4O[C@H]2[C@@H](O)CC[C@H]3[C@H]1C5 [dihydromorphine]
specific binding of the radioactively-labeled opioid agonist or antagonist [1]: no specific binding

CC[C@]12CCN(CC3CC3)[C@H](C(=O)c3ccc(O)cc31)[C@@H]2C [ethylketocyclazocine]
specific binding of the radioactively-labeled opioid agonist or antagonist [1]: no specific binding

CCC(=O)C(CC(C)N(C)C)(c1ccccc1)c1ccccc1 (centres unmarked) [methadone]
endogenous specific binding of the radioligand [2]: no or negligible amounts
Bmax [1]: 400-450 femtomoles/μg protein
specific binding of the radioactively-labeled opioid agonist or antagonist [1]: specific binding was found

C=CCN1CC[C@]23c4c5ccc(O)c4O[C@H]2C(=O)CC[C@@]3(O)[C@H]1C5 [naloxone]
endogenous specific binding of the radioligand [2]: endogenous low levels of specific

CC(C)C[C@H](NC(=O)[C@H](CCCCN)NC(=O)[C@H](CCCNC(=N)N)NC(=O)[C@H](C)NC(=O)[C@H](CO)NC(=O)[C@H](CCCCN)NC(=O)[C@H](CCCNC(=N)N)NC(=O)[C@H](C)NC(=O)CNC(=O)[C@@H](NC(=O)[C@H](Cc1ccccc1)NC(=O)CNC(=O)CNC(=O)[C@@H](N)Cc1ccccc1)[C@@H](C)O)C(=O)N[C@@H](C)C(=O)N[C@@H](CC(N)=O)C(=O)N[C@@H](CCC(N)=O)C(=O)O [orphanin FQ]
ataxia [3]: ataxia
muscle tone [3]: decrease in muscle tone
righting reflex [3]: loss of righting reflex
influence on locomotor activity ([3]; i.c.v. and i.t. administration): profound influence on locomotor activity
horizontal locomotion [4]: decrease
vertical locomotion [4]: decrease
toe- and tail-pinch reflexes ([5]; all doses tested): normal
inhibition of nociception ([5]; i.c.v., all doses except the highest, 10 nmol/mouse): No significant inhibition
analgesic effect in hot plate test ([5]; i.c.v., hot plate 58° C., cutoff 60 sec): little analgesic effect
analgesic effect ([5]; i.t., 2.5-10 nmol/4 μL/animal): No analgesic effect
motor effects at the highest dose ([5]; i.t., highest dose): hindlimb paralysis and decrease in locomotor activity

β-endorphin
specific binding of the radioactively-labeled opioid agonist or antagonist [1]: no specific binding

B1: α-endorphin (peptide)
peptide: YGGFMTSEKSQTPLVT
binding result [6]: no binding

B2: monoiodinated Y14-orphanin FQ (peptide)
peptide: FGGFTGARKSARKYANQ
modifications: monoiodotyrosine at position 14 (125I in the binding assay), made by the chloramine T method
notes: also called I-Y14
Kd [7]: 300 pM

B3: dynorphin A (peptide)
peptide: YGGFLRRIRPKLKWDNQ
binding result [6]: no binding

B4: dynorphin B (peptide)
peptide: YGGFLRRQFKVVT
binding result [6]: no binding

B5: Y14-orphanin FQ (peptide)
peptide: FGGFTGARKSARKYANQ
cAMP inhibition assay in MSOR-transfected CHO cells, EC50 [8]: 1000 pM

B6: Leu-Enkephalin (peptide)
peptide: YGGFL
binding result [6]: no binding
